Source: patent US20210002231A1 (Centre National de la Recherche Scientifique, priority 2018, published 2021)
Starred links: 1 amine or outer side, 2 acyl side, 3 side chain; linkers in the order of their positions; H or OH if unused. Non-standard residues stand in square brackets, D forms with d. Residues, ends and D or L forms follow the SMILES beside them. Nva(5-(4-Bn-piperidin-1-yl)) = N[C@@H](CCCN1CCC(Cc2ccccc2)CC1)C(=O)O; X5 = O=C1[C@@H](N[*:1])Cc2ccccc2CN1CCCC(=O)[*:2]; X1 = O=C1[C@@H](N[*:1])Cc2ccccc2CN1CCC(=O)[*:2]; Dmt = Cc1cc(O)cc(C)c1C[C@H](N)C(=O)O; dNMeA = CN[C@H](C)C(=O)O; Nlys = NCCCCNCC(=O)O; βAla = NCCC(=O)O

Columns and labels:
[1] = target: T1, human MOPr (Homo sapiens, UniProt P35372); test: cell-based; type: cell-based; set-up: expressed in transfected cells; HEK293-Glo20F cells (cAMP); conditions: for Emax: read-out: MOPr (cAMP) Emax; for MOPr-induced G protein activation: in words
Description: Stimulation by endogenous RF-amide peptides or test compounds for [^35S]-GTPγS binding to membranes from CHO cells expressing human NPFF1R or NPFF2R, were examined as reported. 1.6. Glo-Sensor cAMP Assay cAMP accumulation assay was essentially done as described with the following modifications: HEK293 cells stably expressing cAMP Glosensor-20F were used, with or without additional stable expression of each individual opioid receptor or NPFF1R. The cAMP responses were measured in presence of D-luciferin (1 mM).

[2] = target: T1, human MOPr; test: BRET1 β-arrestin-2 recruitment assay; type: cell-based; set-up: expressed in transfected cells; host or cells: HEK293 cells stably expressing eYFP-β-arrestin-2, transiently transfected with the Rluc8-MOP plasmid; conditions: for EC50: Table 3B, — = non-detectable recruitment, read-out: MOPr (β-arrestin-2) EC50; for Emax: read-out: MOPr (β-arrestin-2) Emax; for β-arrestin-2 recruitment: in words;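 for Emax: Emax relative to maximal DAMGO-induced BRET as 100%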;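 for MOPr (β-arrestin-2) Emax: Emax relative to maximal DAMGO-induced BRET as 100%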
Description: Peak response amplitudes were normalized to basal and maximal (cells permeabilized with 20 μM digitonin) fluorescence levels. 1.8. β-Arrestin-2 recruitment assay The β-arrestin-2 recruitment assay was performed as described [34; 45] with minor modifications. Briefly, two days prior the experiment, HEK293 cells stably expressing eYFP-tagged β-arrestin-2 were transfected with the plasmid encoding Rluc8-MOP receptor. β-Arrestin-2 recruitment was measured at 37° C. in presence of 5 μM Coelenterazine H, 5 min after agonist addition.

[3] = Table 3B, read-out: MOPr (cAMP) EC50
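Throughout, for MOPr (cAMP) Emax: Emax relative to DAMGO as 100%.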

T1 sequence (P35372 whole entry): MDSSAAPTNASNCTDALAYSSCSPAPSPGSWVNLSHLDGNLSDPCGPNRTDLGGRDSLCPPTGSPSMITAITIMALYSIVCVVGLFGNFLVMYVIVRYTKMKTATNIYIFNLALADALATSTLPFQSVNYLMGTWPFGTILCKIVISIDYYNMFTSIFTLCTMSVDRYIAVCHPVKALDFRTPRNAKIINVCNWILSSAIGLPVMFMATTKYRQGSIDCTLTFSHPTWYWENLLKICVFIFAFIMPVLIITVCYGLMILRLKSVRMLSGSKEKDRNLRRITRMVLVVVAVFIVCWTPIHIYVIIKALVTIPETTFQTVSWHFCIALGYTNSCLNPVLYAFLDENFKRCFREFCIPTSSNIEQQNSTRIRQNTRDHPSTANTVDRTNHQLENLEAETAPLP

Compound | EC50 [1, 3] [nM] | Emax [1] [%] | EC50 [2] [nM] | Emax [2] [%] | MOPr-induced G protein activation [1] | β-arrestin-2 recruitment [2] | EC50 ([1]; MOPr (cAMP) EC50, Table 3B) [nM]
Cc1cc(O)cc(C)c1C[C@H](N)C(=O)N(C)[C@H](C)C(=O)N[C@H]1Cc2ccccc2CN(CCC(=O)N[C@@H](CCCN2CCC(Cc3ccccc3)CC2)C(=O)N[C@@H](Cc2ccccc2)C(N)=O)C1=O [DP0007, H-Dmt-N(Me)-D-Ala-Aba-β-Ala-Bpa-Phe-NH2] (H-[Dmt][dNMeA][X1][Nva(5-(4-Bn-piperidin-1-yl))]F-NH2) | 40 ± 20 | 64 ± 6 | 214 | 12 |  |  | 
Cc1cc(O)cc(C)c1C[C@H](N)C(=O)N1CCC[C@@H]1C(=O)N[C@H]1Cc2ccccc2CN(CCC(=O)N[C@@H](CCCN2CCC(Cc3ccccc3)CC2)C(=O)N[C@@H](Cc2ccccc2)C(N)=O)C1=O [DP0008, H-Dmt-D-Pro-Aba-β-Ala-Bpa-Phe-NH2] (H-[Dmt][dP][X1][Nva(5-(4-Bn-piperidin-1-yl))]F-NH2) | 10.6 ± 1.3 | 53 ± 0.7 |  |  | significant | non-detectable | 
Cc1cc(O)cc(C)c1C[C@H](N)C(=O)N[C@H](CCCN1CCC(Cc2ccccc2)CC1)C(=O)N[C@H]1Cc2ccccc2CN(CCC(=O)N[C@@H](CCCN2CCC(Cc3ccccc3)CC2)C(=O)N[C@@H](Cc2ccccc2)C(N)=O)C1=O [DP0009, H-Dmt-D-Bpa-Aba-β-Ala-Bpa-Phe-NH2] | 800 | 35 |  |  |  |  | 
Cc1cc(O)cc(C)c1C[C@H](N)C(=O)N[C@H](CCCNC(=N)N)C(=O)N[C@H]1Cc2ccccc2CN(CCC(=O)N[C@@H](CCCN2CCC(Cc3ccccc3)CC2)C(=O)N[C@H](Cc2ccccc2)C(N)=O)C1=O [DP0015, H-Dmt-D-Arg-Aba-β-Ala-Bpa-D-Phe-NH2] | 5.9 ± 0.3 | 109 ± 0.4 | 80 | 59 |  |  | 
Cc1cc(O)cc(C)c1C[C@H](N)C(=O)N[C@H](CCCNC(=N)N)C(=O)N[C@H]1Cc2ccccc2CN(CCC(=O)N[C@@H](CCCN2CCC(Cc3ccccc3)CC2)C(=O)N[C@@H](Cc2ccccc2)C(=O)NCCC(N)=O)C1=O [DP0016, H-Dmt-D-Arg-Aba-β-Ala-Bpa-Phe-β-Ala-NH2] (H-[Dmt][dR][X1][Nva(5-(4-Bn-piperidin-1-yl))]F[βAla]-NH2) | 19 | 95 | 399 | 31 |  |  | 
Cc1cc(O)cc(C)c1C[C@H](N)C(=O)N(C)[C@H](C)C(=O)N[C@H]1Cc2ccccc2CN(CCCC(=O)N[C@@H](CCCN2CCC(Cc3ccccc3)CC2)C(=O)N[C@@H](Cc2ccccc2)C(N)=O)C1=O [DP0017, H-Dmt-N(Me)-D-Ala-AbaGABA-Bpa-Phe-NH2] (H-[Dmt][dNMeA][X5][Nva(5-(4-Bn-piperidin-1-yl))]F-NH2) | 14.1 | 70 |  |  | significant | non-detectable | 
Cc1cc(O)cc(C)c1C[C@H](N)C(=O)N[C@H](CCCNC(=N)N)C(=O)N[C@H]1Cc2c(ccc3ccccc23)CN(CC(=O)N[C@@H](CCCN2CCC(Cc3ccccc3)CC2)C(=O)N[C@@H](Cc2c[nH]c3ccccc23)C(N)=O)C1=O [DP0023, H-Dmt-D-Arg-1AnaGly-Bpa-Trp-NH2] |  | 61 |  |  | significant | non-detectable | 9.1
Cc1cc(O)cc(C)c1C[C@H](N)C(=O)N[C@H](CCCNC(=N)N)C(=O)N[C@@H](Cc1ccccc1)C(=O)N(C)CC(=O)N[C@@H](CCCN1CCC(Cc2ccccc2)CC1)C(=O)N[C@@H](Cc1ccccc1)C(N)=O [DP0024, H-Dmt-D-Arg-Phe-N(Me)Gly-Bpa-Phe-NH2] (HELM PEPTIDE1{[Cc1cc(O)cc(C)c1C[C@H](N)C(=O)[*:2]].[dR].F.[Sar].[O=C([C@H](CCCN1CCC(Cc2ccccc2)CC1)N[*:1])[*:2]].F.[am]}$$$$V2.0) | 9.9 | 97 | ~50 | ~95 |  |  | 
Cc1cc(O)cc(C)c1C[C@H](N)C(=O)N(CCCCN)CC(=O)N[C@H]1Cc2ccccc2CN(CCC(=O)N[C@@H](CCCN2CCC(Cc3ccccc3)CC2)C(=O)N[C@@H](Cc2ccccc2)C(N)=O)C1=O [DP0035, H-Dmt-Nlys-Aba-β-Ala-Bpa-Phe-NH2] (H-[Dmt][Nlys][X1][Nva(5-(4-Bn-piperidin-1-yl))]F-NH2) | 48.4 | 15 |  |  |  |  | 
